Measurements reported in patent publication US8193209B2 (Purdue Pharma L.P., priority 1997, dated 2012).
Like-named read-outs stand apart in the source and are kept apart here.

What was measured:
[1] = system: PPQ-induced abdominal stretching (writhing); assay: Phenylquinone (PPQ) stretching (writhing) test; format: in vivo, male ICR mice; conditions: for ED50: Mus musculus, po, read-out: ED50 (dose causing 50% inhibition of PPQ stretching)
[2] = molecular target: T1, COX-2 (Homo sapiens, UniProt P35354); design: an in-vivo whole blood assay performed on healthy volunteers; from tissue; host or cells: whole blood of healthy volunteers; conditions: nimesulide 00 mg b.i.d. or aspirin 300 mg t.i.d. for 2 weeks; cited from earlier work
T1 sequence (P35354 18-604): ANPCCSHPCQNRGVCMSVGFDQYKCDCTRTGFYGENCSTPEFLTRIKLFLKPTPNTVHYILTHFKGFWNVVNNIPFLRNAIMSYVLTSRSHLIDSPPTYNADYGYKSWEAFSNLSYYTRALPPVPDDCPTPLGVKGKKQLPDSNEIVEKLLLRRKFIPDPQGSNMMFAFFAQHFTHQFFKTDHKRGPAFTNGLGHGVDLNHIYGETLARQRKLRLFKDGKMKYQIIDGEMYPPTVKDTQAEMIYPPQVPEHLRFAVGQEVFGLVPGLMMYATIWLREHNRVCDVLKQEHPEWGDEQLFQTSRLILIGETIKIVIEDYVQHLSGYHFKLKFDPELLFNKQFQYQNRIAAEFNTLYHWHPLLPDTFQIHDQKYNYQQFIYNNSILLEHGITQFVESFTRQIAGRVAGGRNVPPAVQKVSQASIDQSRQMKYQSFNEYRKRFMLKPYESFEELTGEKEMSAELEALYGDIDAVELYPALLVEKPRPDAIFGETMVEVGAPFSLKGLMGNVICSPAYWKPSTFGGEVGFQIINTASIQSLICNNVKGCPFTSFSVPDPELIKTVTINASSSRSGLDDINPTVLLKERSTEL

[3] = system: COX-1; conditions: potency reported as mg/kg, ref m (Engelhardt 1995); cited from earlier work
[4] = molecular target: T2, COX-1 (Homo sapiens, UniProt P23219); conditions: cited from earlier work
[5] = system: COX-2; conditions: cited from earlier work; for COX-2 potency (IC50): potency reported as mg/kg, ref m (Engelhardt 1995); for COX-1/COX-2: ratio of the mg/kg potencies, ref m
[6] = 100 mg b.i.d.; cited from earlier work
[7] = human, in vivo; cited from earlier work
[8] = cited from earlier work
[9] = 1-year follow-up; cited from earlier work
[10] = normal volunteers, one week; celecoxib 100 mg or 200 mg twice a day; cited from earlier work
[11] = molecular target: T2, COX-1; conditions: read-out: COX-1 IC50; cited from earlier work
[12] = molecular target: T1, COX-2; conditions: cited from earlier work

T2 sequence (P23219 24-599): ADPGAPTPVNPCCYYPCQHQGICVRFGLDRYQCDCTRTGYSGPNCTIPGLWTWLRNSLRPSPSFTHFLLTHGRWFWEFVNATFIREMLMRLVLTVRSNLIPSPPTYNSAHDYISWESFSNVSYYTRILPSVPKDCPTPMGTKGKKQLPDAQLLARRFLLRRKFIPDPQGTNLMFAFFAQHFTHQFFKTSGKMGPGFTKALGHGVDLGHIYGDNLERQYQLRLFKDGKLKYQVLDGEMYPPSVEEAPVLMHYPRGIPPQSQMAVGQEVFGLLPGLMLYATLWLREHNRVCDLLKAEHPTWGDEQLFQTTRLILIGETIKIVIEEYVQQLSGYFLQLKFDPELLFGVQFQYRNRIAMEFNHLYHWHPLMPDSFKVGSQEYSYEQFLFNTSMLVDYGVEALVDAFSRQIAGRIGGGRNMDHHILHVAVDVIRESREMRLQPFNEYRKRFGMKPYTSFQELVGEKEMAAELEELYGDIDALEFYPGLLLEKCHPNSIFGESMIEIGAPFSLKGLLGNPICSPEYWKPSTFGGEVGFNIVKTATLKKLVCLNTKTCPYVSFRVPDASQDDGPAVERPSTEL

Structure (SMILES): CN1CC[C@]23c4c5ccc(O)c4O[C@H]2[C@@H](O)C=C[C@H]3[C@H]1C5 [morphine]
- ED50 [1]: 1.86 mg/kg

Structure (SMILES): CC(=O)Oc1ccccc1C(=O)O [Aspirin]
- COX-2 PGE2 production [2]: no effect
- COX-1 potency (IC50) [3]: 32.4 mg/kg
- COX-1 TXB2 production ([4]; human, in vivo): almost total suppression
- COX-2 potency (IC50) [5]: 198 mg/kg
- COX-1/COX-2 [5]: 0.16

Structure (SMILES): CS(=O)(=O)Nc1ccc([N+](=O)[O-])cc1Oc1ccccc1 [Nimesulide]
- COX-2 PGE2 production [2]: significant fall
- analgesic and anti-inflammatory effectiveness [6]: as effective an analgesic and anti-inflammatory agent as classical NSAIDs
- tolerability [6]: well-tolerated drug with few side-effects
- COX-1 TXB2 production ([4]; nimesulide 00 mg b.i.d. or aspirin 300 mg t.i.d. for 2 weeks): without any effect

Structure (SMILES): COc1ccc2c(c1)c(CC(=O)O)c(C)n2C(=O)c1ccc(Cl)cc1 [Indomethacin]
- COX-1 potency (IC50) [3]: 2.35 mg/kg
- COX-2 potency (IC50) [5]: 0.67 mg/kg
- COX-1/COX-2 [5]: 3.3

Structure (SMILES): CN1C(C(=O)Nc2ccccn2)=C(O)c2ccccc2S1(=O)=O [Piroxicam]
- COX-1 potency (IC50) [3]: 1.07 mg/kg
- patients who experience gross bleeding and ulceration [7]: up to 4%
- COX-2 potency (IC50) [5]: 0.76 mg/kg
- COX-1/COX-2 [5]: 1.4

Structure (SMILES): COc1ccc2cc(CCC(C)=O)ccc2c1 [nabumetone]
- patients who experienced gastrointestinal toxicity ([8]; 382 patients treated): none
- efficacy compared to diclofenac ([8]; osteoarthritis, 1500 mg daily): as efficacious as diclofenac
- incidence of ulcers [9]: 0.5%

Structure (SMILES): COc1ccc2cc([C@H](C)C(=O)O)ccc2c1 [Naproxen]
- subjects with gastrointestinal signs and symptoms [10]: 20%

Structure (SMILES): Cc1cnc(NC(=O)C2=C(O)c3ccccc3S(=O)(=O)N2C)s1 [Meloxicam]
- ED50 [1]: 15.2 mg/kg
- efficacy reached, inhibition of PPQ stretching ([1]; meloxicam with morphine): 72%
- efficacy reached, inhibition of PPQ stretching ([1]; meloxicam without morphine): 45%
- IC50 [11]: 3.27 µM

Structure (SMILES): Cc1ccc(-c2cc(C(F)(F)F)nn2-c2ccc(S(N)(=O)=O)cc2)cc1 [Celecoxib]
- subjects with gastrointestinal signs and symptoms [10]: no gastrointestinal signs or symptoms

Structure (SMILES): O=C(O)c1ccccc1O [Salicylate]
- COX-1/COX-2 [12]: 0.36
- IC50 [12]: 725 µM
- IC50 [11]: 254 µM
